Counter-ions that a name gives are not always drawn.
Tests used:
[1] = tested on: NCI-H292 lung cancer cells; assay: FDA drug screening, complete media vs cholesterol-free media without statin (TABLE 1); assay type: cell-based, human
[2] = tested on: NCI-H292 lung cancer cells; assay: FDA drug screening, complete media vs cholesterol-free media with simvastatin (TABLE 2); assay type: cell-based, human; conditions: for Cholesterol-free media + simvastatin (0.04 μM) / Complete Media: NCI-H292 cells
[3] = NCI-H292 cells, cholesterol-free media without statin, FDA drug library screen
[4] = NCI-H292 cells, complete media, FDA drug library screen
[5] = complete vs cholesterol-free media, >0 enhanced anti-cancer activity, about 0 neutral, <0 antagonist
[6] = FDA library drug in cholesterol-free media with simvastatin 0.04 μM
[7] = FDA library drug in complete media
[8] = complete media vs cholesterol-free media + simvastatin (0.04 μM), >0 enhanced anti-cancer activity, about 0 neutral, <0 antagonist
[9] = Complete minus Cholesterol-free, greater than 0 enhanced anti-cancer activity, about 0 neutral, below 0 antagonist
[10] = NCI-H292 cells, FDA drug library screen, cholesterol-free media without statin
[11] = NCI-H292 cells, FDA drug library screen, complete media
[12] = drug in cholesterol-free media with simvastatin 0.04 μM
[13] = Complete minus Cholesterol-free, >0 enhanced anti-cancer activity, about 0 neutral, <0 antagonist
[14] = NCI-H292 cells, cholesterol-free media without statin
[15] = FDA drug library screen, cholesterol-free media with simvastatin 0.04 μM
[16] = FDA drug library screen, complete media
[17] = complete media minus cholesterol-free media + simvastatin, >0 enhanced anti-cancer activity, about 0 neutral, <0 antagonist
[18] = Complete minus Cholesterol-free, […]
[19] = complete media vs cholesterol-free media + simvastatin (0.04 μM), […]
[20] = cholesterol-free media with simvastatin 0.04 μM, FDA drug library screen (TABLE 2)
[21] = complete media, FDA drug library screen (TABLE 2)
[22] = complete media minus cholesterol-free media + simvastatin (0.04 μM), >0 enhanced anti-cancer activity, about 0 neutral, <0 antagonist

## O=C(O)c1ccc2nc(-c3cc(Cl)cc(Cl)c3)oc2c1 [Tafamidis]
[1]; [3]
  Cholesterol-free: 0.399
[1]; [4]
  Complete: 0.8565
[1]; [5]
  Difference: 0.46
[2]; [6]
  Cholesterol-free media + simvastatin (0.04 μM): 1.307
[2]; [7]
  Complete Media: 0.9388
[2]; [8]
  Difference: −0.37

## CC(C)OC(=O)CCC/C=C\C[C@@H]1[C@@H](/C=C/C(F)(F)COc2ccccc2)[C@H](O)C[C@@H]1O [Tafluprost]
[1]; [9]
  Difference: −0.18
[1]; [10]
  Cholesterol-free: 0.9541
[1]; [11]
  Complete: 0.7736
[2]; [12]
  Cholesterol-free media + simvastatin (0.04 μM): 1.261
[2]; drug in complete media
  Complete Media: 1.095
[2]; [8]
  Difference: −0.17

## C=Cc1c(C)c2cc3nc(c(CC(=O)N[C@@H](CC(=O)O)C(=O)O)c4[nH]c(cc5nc(cc1[nH]2)C(C)=C5CC)c(C)c4C(=O)O)[C@@H](CCC(=O)O)[C@@H]3C [Talaporfin (sodium)]
[1]; [13]
  Difference: −0.29
[1]; [14]
  Cholesterol-free: 1.22
[1]; NCI-H292 cells, complete media
  Complete: 0.9319
[2]; [15]
  Cholesterol-free media + simvastatin (0.04 μM): 1.087
[2]; [16]
  Complete Media: 0.9459
[2]; [8]
  Difference: −0.14

## Cn1ncnc1[C@H]1c2n[nH]c(=O)c3cc(F)cc(c23)N[C@@H]1c1ccc(F)cc1 [Talazoparib tosylate]
[1]; [13]
  Difference: 0.05
[1]; [3]
  Cholesterol-free: 0.1398
[1]; [4]
  Complete: 0.1924
[2]; [6]
  Cholesterol-free media + simvastatin (0.04 μM): 0.5996
[2]; [7]
  Complete Media: 0.312
[2]; [8]
  Difference: −0.29

## Cn1ncnc1[C@H]1c2n[nH]c(=O)c3cc(F)cc(c23)N[C@@H]1c1ccc(F)cc1 [Talazoparib]
[1]; [13]
  Difference: −0.06
[1]; [3]
  Cholesterol-free: 0.2349
[1]; [4]
  Complete: 0.179
[2]; cholesterol-free media with simvastatin 0.04 μM, cell growth value in FDA drug screen
  Cholesterol-free media + simvastatin (0.04 μM): 0.3041
[2]; complete media, cell growth value in FDA drug screen
  Complete Media: 0.3489
[2]; [17]
  Difference: 0.04

## C=CCN1CCc2nc(N)sc2CC1 [Talipexole dihydrochloride]
[1]; [9]
  Difference: −0.09
[1]; [10]
  Cholesterol-free: 1.016
[1]; [11]
  Complete: 0.9282
[2]; [12]
  Cholesterol-free media + simvastatin (0.04 μM): 1.333
[2]; drug in complete media
  Complete Media: 1.079
[2]; [8]
  Difference: −0.25

## O=C1OC(OC(=O)c2cccnc2Nc2cccc(C(F)(F)F)c2)c2ccccc21 (stereo not drawn) [Talniflumate]
[1]; [3]
  Cholesterol-free: 0.679
[1]; [4]
  Complete: 1.267
[1]; [5]
  Difference: 0.59
[2]; [12]
  Cholesterol-free media + simvastatin (0.04 μM): 1.554
[2]; drug in complete media
  Complete Media: 1.302
[2]; [8]
  Difference: −0.25

## CC(=O)O.CN1C(=O)C[C@@H](C(=O)N[C@@H](Cc2cnc[nH]2)C(=O)N2CCC[C@H]2C(N)=O)NC1=O [Taltirelin (acetate)]
[1]; [18]
  Difference: −0.12
[1]; [10]
  Cholesterol-free: 1.092
[1]; [11]
  Complete: 0.9679
[2]; [15]
  Cholesterol-free media + simvastatin (0.04 μM): 1.154
[2]; [16]
  Complete Media: 1.062
[2]; [19]
  Difference: −0.09

## CN1C(=O)C[C@@H](C(=O)N[C@@H](Cc2c[nH]cn2)C(=O)N2CCC[C@H]2C(N)=O)NC1=O [Taltirelin]
[1]; [14]
  Cholesterol-free: 1.305
[1]; NCI-H292 cells, complete media
  Complete: 0.871
[1]; complete vs cholesterol-free media, […]
  Difference: −0.43
[2]; [12]
  Cholesterol-free media + simvastatin (0.04 μM): 1.39
[2]; [19]
  Difference: −0.24

## CC1(C)CCC(C)(C)c2cc(NC(=O)c3ccc(C(=O)O)cc3)ccc21 [Tamibarotene]
[1]; [18]
  Difference: −0.24
[1]; [14]
  Cholesterol-free: 0.7767
[1]; NCI-H292 cells, complete media
  Complete: 0.5392
[2]; [15]
  Cholesterol-free media + simvastatin (0.04 μM): 0.556
[2]; [16]
  Complete Media: 0.7365
[2]; complete media minus cholesterol-free media + simvastatin, […]
  Difference: 0.18

## CC/C(=C(\c1ccccc1)c1ccc(OCCN(C)C)cc1)c1ccccc1 [Tamoxifen]
[1]; [13]
  Difference: 0.05
[1]; [3]
  Cholesterol-free: 0.6611
[1]; [4]
  Complete: 0.7069
[2]; [15]
  Cholesterol-free media + simvastatin (0.04 μM): 0.7526
[2]; [16]
  Complete Media: 1.084
[2]; [17]
  Difference: 0.33

## CCOc1ccccc1OCCN[C@H](C)Cc1ccc(OC)c(S(N)(=O)=O)c1 [Tamsulosin]
[1]; [9]
  Difference: −0.14
[1]; [10]
  Cholesterol-free: 1.006
[1]; [11]
  Complete: 0.8695
[2]; [12]
  Cholesterol-free media + simvastatin (0.04 μM): 1.361
[2]; drug in complete media
  Complete Media: 1.178
[2]; [8]
  Difference: −0.18

## O=C1[C@@H]2[C@H]3CC[C@H](C3)[C@@H]2C(=O)N1CCCCN1CCN(c2ncccn2)CC1 [Tandospirone]
[1]; [13]
  Difference: −0.26
[1]; [14]
  Cholesterol-free: 1.451
[1]; NCI-H292 cells, complete media
  Complete: 1.192
[2]; [20]
  Cholesterol-free media + simvastatin (0.04 μM): 0.8591
[2]; [21]
  Complete Media: 0.8479
[2]; [22]
  Difference: −0.01

## O=C(OC[C@H]1O[C@@H](OC(=O)c2cc(O)c(O)c(OC(=O)c3cc(O)c(O)c(O)c3)c2)[C@H](OC(=O)c2cc(O)c(O)c(OC(=O)c3cc(O)c(O)c(O)c3)c2)[C@@H](OC(=O)c2cc(O)c(O)c(OC(=O)c3cc(O)c(O)c(O)c3)c2)[C@@H]1OC(=O)c1cc(O)c(O)c(OC(=O)c2cc(O)c(O)c(O)c2)c1)c1cc(O)c(O)c(OC(=O)c2cc(O)c(O)c(O)c2)c1 [Tannic acid]
[1]; Complete minus Cholesterol-free, greater than 0 enhanced anti-cancer activity, about 0 neutral, below 0 antagonists
  Difference: −0.60
[1]; NCI-H292 cells in cholesterol-free media without statin
  Cholesterol-free: 1.391
[1]; NCI-H292 cells in complete media
  Complete: 0.7941
[2]; [15]
  Cholesterol-free media + simvastatin (0.04 μM): 1.824
[2]; [16]
  Complete Media: 2.065
[2]; [17]
  Difference: 0.24

## Cc1coc2c1C(=O)C(=O)c1c-2ccc2c(C)cccc12 [Tanshinone I]
[1]; [18]
  Difference: −0.07
[1]; [10]
  Cholesterol-free: 0.8572
[1]; [11]
  Complete: 0.783
[2]; [20]
  Cholesterol-free media + simvastatin (0.04 μM): 0.9012
[2]; [21]
  Complete Media: 0.8645
[2]; complete media minus cholesterol-free media + simvastatin (0.04 μM), […]
  Difference: −0.04

## CCC(=O)NC[C@@H]1C[C@H]1c1cccc2c1CCO2 [Tasimelteon]
[1]; [9]
  Difference: −0.12
[1]; [10]
  Cholesterol-free: 0.9406
[1]; [11]
  Complete: 0.8228
[2]; [20]
  Cholesterol-free media + simvastatin (0.04 μM): 0.9943
[2]; [21]
  Complete Media: 0.9618
[2]; [22]
  Difference: −0.03

## NCCS(=O)(=O)O [Taurine]
[1]; [3]
  Cholesterol-free: 1.192
[1]; [4]
  Complete: 1.309
[1]; [5]
  Difference: 0.12
[2]; [6]
  Cholesterol-free media + simvastatin (0.04 μM): 1.971
[2]; [7]
  Complete Media: 1.363
[2]; [8]
  Difference: −0.61

## C[C@H](CCC(=O)NCCS(=O)(=O)[O-])[C@H]1CC[C@H]2[C@@H]3[C@@H](O)C[C@@H]4C[C@H](O)CC[C@]4(C)[C@H]3CC[C@]12C.[Na+] [Taurochenodeoxycholic acid (sodium salt)]
[1]; [18]
  Difference: −0.22
[1]; [14]
  Cholesterol-free: 0.9501
[1]; NCI-H292 cells, complete media
  Complete: 0.7299
[2]; [6]
  Cholesterol-free media + simvastatin (0.04 μM): 1.88
[2]; [7]
  Complete Media: 1.535
[2]; [19]
  Difference: −0.35

## C[C@H](CCC(=O)NCCS(=O)(=O)O)[C@H]1CC[C@H]2[C@@H]3[C@H](O)C[C@@H]4C[C@H](O)CC[C@]4(C)[C@H]3CC[C@]12C [Taurochenodeoxycholic acid]
[1]; [18]
  Difference: −0.12
[1]; [10]
  Cholesterol-free: 0.9676
[1]; [11]
  Complete: 0.8469
[2]; [12]
  Cholesterol-free media + simvastatin (0.04 μM): 1.179
[2]; drug in complete media
  Complete Media: 1.003
[2]; [19]
  Difference: −0.18

## C[C@H](CCC(=O)NCCS(=O)(=O)O)[C@H]1CC[C@H]2[C@@H]3CC[C@@H]4C[C@H](O)CC[C@]4(C)[C@H]3C[C@H](O)[C@]12C [Taurodeoxycholic acid (sodium hydrate)]
[1]; [13]
  Difference: −0.23
[1]; [14]
  Cholesterol-free: 1.216
[1]; NCI-H292 cells, complete media
  Complete: 0.9829
[2]; [8]
  Difference: −0.45

## OB1OCc2cc(F)ccc21 [Tavaborole]
[1]; [13]
  Difference: −0.04
[1]; [3]
  Cholesterol-free: 1.018
[1]; [4]
  Complete: 0.9789
[2]; [20]
  Cholesterol-free media + simvastatin (0.04 μM): 1.181
[2]; [21]
  Complete Media: 1.117
[2]; [22]
  Difference: −0.06

## CCOC(=O)c1ccc(C#Cc2ccc3c(c2)C(C)(C)CCS3)nc1 [Tazarotene]
[1]; [9]
  Difference: −0.11
[1]; [10]
  Cholesterol-free: 0.7313
[1]; [11]
  Complete: 0.6177
[2]; [20]
  Cholesterol-free media + simvastatin (0.04 μM): 0.9107
[2]; [21]
  Complete Media: 0.8646
[2]; [22]
  Difference: −0.05
